Our source for the IC50, inhibition and Kd values is patent EP3083561B1, “HETEROARYL LINKED QUINOLINYL MODULATORS OF RORYT” (Janssen Pharmaceutica NV, priority 2013, dated 2015).

One assay concerns the target T1, human RORγt LBD (Homo sapiens, UniProt P51449).
T1 construct: expressed in transfected cells
T1 sequence (P51449 258-518): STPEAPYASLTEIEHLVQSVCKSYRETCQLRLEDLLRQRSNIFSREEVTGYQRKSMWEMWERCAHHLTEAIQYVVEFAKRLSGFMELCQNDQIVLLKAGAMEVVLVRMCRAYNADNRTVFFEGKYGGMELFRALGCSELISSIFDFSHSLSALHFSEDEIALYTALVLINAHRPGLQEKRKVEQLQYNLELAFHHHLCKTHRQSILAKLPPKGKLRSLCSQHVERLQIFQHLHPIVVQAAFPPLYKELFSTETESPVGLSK
As to the kind of experiment: RORγt reporter assay (GAL4-RORγt LBD luciferase in HEK293T cells). In kind it is cell-based. To be noted: for pIC50: 24 hours compound treatment; for inhibition at 6 µM: HEK-293T. The source says: A reporter assay was used to test functional activity of RORγt modulatory compounds on transcriptional activation driven by the RORγt LBD. Cells used in the assay were co-transfected with two constructs. The first construct, pBIND-RORγt LBD, contained the wild type human RORγt LBD fused to the DNA binding domain of the GAL4 protein. The second construct, pGL4.31 (Promega Cat no. C935A), contained multiple GAL4 responsive DNA elements upstream of firefly luciferase. […] The mutant construct was called pBIND-RORγt-AF2.
The pBIND vector contains the GAL4 DNA Binding Domain (GAL4 DBD) and the renilla luciferase gene under control of the SV40 promoter. Renilla luciferase expression serves as a control for transfection efficiency and cell viability.
The reporter assay was performed by transiently transfecting HEK293T cells with 5 µg of pBIND-RORγt LBD or pBIND-RORγt LBD-AF2 and 5 µg pGL4.31 (Promega Cat no. C935A) using Fugene 6 (Invitrogen Cat no. E2691) at a 1:6 ratio of DNA: Fugene 6 in a T-75 flask in which cells were at least 80% confluent. Twenty four hours after bulk transfection, cells were plated into 96-well plates at 50,000 cells/well in phenol-red free DMEM containing 5% Lipid Reduced FCS and Pen/Strep. Six hours after plating, cells were treated with compounds for 24 hours. Media was removed and cells were lysed with 50 µL 1x Glo Lysis Buffer (Promega). Dual Glo Luciferase Reagent (50 µL/well) was then added and firefly luciferase luminescence was read on an Envision after a ten minute incubation. Finally, Stop and Glo reagent (50 µL/well) was added and renilla luciferase luminescence was read on an Envision after a ten minute incubation. To calculate the effect of compounds on RORγt activity, the ratio of firefly to renilla luciferase was determined and plotted against compound concentration. Agonist compounds increase RORγt-driven luciferase expression, and antagonist or inverse agonist compounds decrease luciferase expression.

In assay [1] the target is T2, human RORγt ligand binding domain (RORγt LBD) (Homo sapiens, UniProt P51449).
T2 construct: made in house; host or cells: E. coli (pHIS1, modified pET vector)
T2 sequence (P51449 258-518): T1 sequence (P51449 258-518)
Nature of the assay: RORγt ThermoFluor assay (thermal shift binding affinity). The conditions noted are these: 0.065 mg/mL RORγt, pH 7.0; estimated from thermal shift. The method, then:
This approach is applicable to a wide variety of systems, and rigorous in theoretical interpretation through quantitation of equilibrium binding constants (KD).
The shift in the melting point described as a ΔTm is proportional to the concentration and affinity of the ligand. The compound potency may be compared as a rank order of either ΔTm values at a single compound concentration or in terms of KD values, estimated from concentration response curves.
ThermoFluor® experiments were carried out using instruments owned by Janssen Research and Discovery, L.L.C. through its acquisition of 3-Dimensional Pharmaceuticals, Inc. 1,8-ANS (Invitrogen) was used as a fluorescent dye. Protein and compound solutions are dispensed into black 384-well polypropylene PCR microplates (Abgene) and overlayed with silicone oil (1 µL, Fluka, type DC 200) to prevent evaporation.
Bar-coded assay plates are robotically loaded onto a thermostatically controlled PCR-type thermal block and then heated at a typical ramp-rate of 1 °C/min for all experiments. Fluorescence was measured by continuous illumination with UV light (Hamamatsu LC6) supplied via fiber optic and filtered through a band-pass filter (380-400 nm; >6 OD cutoff). Fluorescence emission of the entire 384-well plate was detected by measuring light intensity using a CCD camera (Sensys, Roper Scientific) filtered to detect 500 ± 25 nm, resulting in simultaneous and independent readings of all 384 wells. Images were collected at each temperature, and the sum of the pixel intensity in a given area of the assay plate was recorded versus temperature. Reference wells contained RORγt without compounds, and the assay conditions were as follows: • 0.065 mg/mL RORyt • 60 µM 1,8-ANS • 100 mM Hepes, pH 7.0 • 10 mM NaCl • 2.5 mM GSH • 0.002% Tween-20
Project compounds were arranged in a pre-dosed mother plate (Greiner Bio-one) wherein compounds are serially diluted in 100% DMSO by 1:2 from a high concentration of 10 mM over 12 columns within a series (column 12 is a reference well containing DMSO, no compound). The compounds were robotically dispensed directly into assay plates (1x = 46 nL) using a Hummingbird capillary liquid handling instrument (Digilab). Following compound dispense, protein and dye in buffer was added to achieve the final assay volume of 3 µL, followed by 1 µL of silicone oil.

Assay [2] deals with IL-17 production by CD4 T cells. Nature of the assay: Human Th17 assay (IL-17 production by CD4 T cells). In kind it is cell-based. The conditions noted are these: CD4+ T cells from healthy donors, Th17 differentiation, 3 days. An excerpt: The human Th17 assay tests the effect of RORγt modulatory compounds on IL-17 production by CD4 T cells under conditions which favor Th17 differentiation. Total CD4^+ T cells were isolated from the peripheral blood mononuclear cells (PBMC) of healthy donors using a CD4^+ T cell isolation kit II, following the manufacturer's instructions (Miltenyi Biotec). Cells were resuspended in a medium of RPMI-1640 supplemented with 10% fetal bovine serum, penicillin, streptomycin, […], and β-mercaptoethanol and were added to 96-well plates at 1.5x10^5 per 100 µL per well. 50 µL of compound at titrated concentrations in DMSO were added into each well at final DMSO concentration at 0.2%. Cells were incubated for 1 hour, then 50 µL of Th17 cell differentiation medium was added to each well. The final concentrations of antibodies and cytokines (R&D Systems) in differentiation medium were: 3x10^6/mL anti-CD3/CD28 beads (prepared using human T cell activation/expansion kit, Miltenyi Biotec), 10 µg/mL anti-IL4, 10 µg/mL anti-IFNγ, 10 ng/mL IL1β, 10 ng/mL IL23, 50 ng/mL IL6, 3 ng/mL TGFβ and 20 U/mL IL2. Cells were cultured at 37 °C and 5% CO2 for 3 days. Supernatants were collected and the accumulated IL-17 in culture was measured by using MULTI-SPOT® Cytokine Plate following manufacture's instruction (Meso Scale Discovery). The plate was read using Sector Imager 6000, and IL-17 concentration was extrapolated from the standard curve. The IC50s were determined by GraphPad.

Each structure is given as a SMILES string. pIC50, pKd: −log10 of the molar value. Counter-ions that a name gives are not always drawn.

For the molecule `CC(C)OC1CN(c2nc3ccc(C(O)(c4ccc(C(F)(F)F)nc4)c4cncn4C)cc3c(Cl)c2Oc2ccc(Cl)cc2)C1` (stereo not shown) [Example 6, (4-Chloro-3-(4-chlorophenoxy)-2-(3-isopropoxyazetidin-1-yl)quinolin-6-yl)(1-methyl-1H-imidazol-5-yl)(6-(trifluoromethyl)pyridin-3-yl)methanol], on human RORγt LBD, the pIC50 (usually the IC50 on a negative log10 scale, so that one unit is a factor of ten) is less than 5.22 and the inhibition (in general, the change of the read-out against control, counted positive when it falls) at 6 µM stood at 41%. The pKd – broadly, the negative decadic logarithm of the Kd, by convention in mol/L – in assay [1] is 4.96.

The molecule `Cn1cncc1C(O)(c1ccc(C(F)(F)F)nc1)c1ccc2nc(N3CCCC3)c(Oc3ccc(C#N)cc3)c(Cl)c2c1` (stereo not shown) [Example 2b] gave a pIC50 in assay [2] of 6.49.

On to `CCN(CC)c1nc2ccc(C(O)(c3ccccn3)c3cncn3C)cc2c(Cl)c1Oc1ccccc1` (stereo not shown) [Example 3c], for which the pIC50 on human RORγt LBD is 5.96. In addition, the pKd in assay [1] was 6.34.

In the case of `Cn1cncc1C(O)(c1ccc(C(F)(F)F)nc1)c1ccc2nc(N3CCCC3)c(Oc3ccc(C#N)cc3)c(Cl)c2c1` (stereo not shown) [Example 2c], in assay [2], the negative-log IC50 (pIC50) is 7.00.

For the molecule `Cn1cncc1C(O)(c1ccc(C(F)(F)F)nc1)c1ccc2nc(N3CCCC3)c(Oc3ccc(C#N)cc3)c(Cl)c2c1` (racemic) [Example 2a, 4-((4-Chloro-6-(hydroxy(1-methyl-1H-imidazol-5-yl)(6-(trifluoromethyl)pyridin-3-yl)methyl)-2-(pyrrolidin-1-yl)quinolin-3-yl)oxy)benzonitrile], the pIC50 in assay [2] (Homo sapiens, CD4+ T, 72 h) was 7.06.

Consider `CC(C)(C)OC(=O)N(c1ccccc1)c1c(Cl)nc2ccc(C(O)(c3cccnc3)c3cccc(Cl)c3)cc2c1Cl` (stereo not shown) [Example 7, tert-Butyl (2,4-dichloro-6-((3-chlorophenyl)(hydroxy)(pyridin-3-yl)methyl)quinolin-3-yl)(phenyl)carbamate], for which the inhibition at 6 µM against human RORγt LBD turned out to be 72%.

Take `CCN(CC)c1nc2ccc(C(O)(c3ccccn3)c3cncn3C)cc2c(C#N)c1Oc1ccccc1` (single isomer, unassigned) [Example 5c]: the pIC50 on human RORγt LBD is 6.57; in assay [2] (Homo sapiens, 72 h), 6.82. In addition, in assay [1], the negative logarithm of the Kd (pKd) was less than 4.20.

In the case of `CCN(CC)c1nc2ccc(C(O)(c3ccccn3)c3cncn3C)cc2c(C#N)c1Oc1ccccc1` (stereo not shown) [Example 5b], on human RORγt LBD, the negative logarithm of the IC50 (pIC50) is 6.06 and the inhibition at 6 µM amounted to 102%.

Consider `Cn1cncc1C(O)(c1ccc(Cl)cc1)c1ccc2nc(N3CCC3=O)c(Oc3ccc(C#N)cc3)c(Cl)c2c1` (stereo not shown) [Example 1, 4-((4-chloro-6-((4-chlorophenyl)(hydroxy)(1-methyl-1H-imidazol-5-yl)methyl)-2-(2-oxoazetidin-1-yl)quinofin-3-yl)oxy)benzonitrile · TFA], for which the pIC50 was 6.74 against human RORγt LBD and 6.52 in assay [2] (Homo sapiens, 72 h). Further, the inhibition at 6 µM against human RORγt LBD was found to be 101%. The negative-log Kd (pKd) in assay [1] was 7.24.

Consider `CCN(CC)c1nc2ccc(C(O)(c3ccccn3)c3cncn3C)cc2c(Cl)c1Oc1ccccc1` (stereo not shown) [Example 3b], for which the pIC50 on human RORγt LBD is 6.70; in assay [2] (Homo sapiens, 72 h) it was 6.74. Also, on human RORγt LBD, the inhibition at 6 µM is 101%. The negative logarithm of the Kd (pKd) in assay [1] is 6.85.
